This is an account of results in ChEMBL document CHEMBL5625197, “The mystery of titan hunter: Rationalized striking of the MAPK pathway via Newly synthesized 6-Indolylpyridone-3-Carbonitrile derivatives” (Eur J Med Chem, 2023).

Holding throughout (format): functional
The test system of assay [1] is HOP-92. Description: Inhibition of colony formation in human HOP-92 cells incubated for 24 hrs by crystal violet staining based assay relative to control.
Assay [2] deals with HOP-92. In words: Induction of apoptosis in human HOP-92 cells assessed as fold change in Bcl-2 gene expression by RT-PCR analysis.
In assay [3] the test system is HOP-92. In words: Induction of cell cycle arrest in human HOP-92 cells assessed as cell aggregation (reference value: 1.77 %).
For assay [4], the system named is HOP-92. In words: Induction of cell cycle arrest in human HOP-92 cells assessed as cell debris (reference value: 2.18 %).
Assay [5] concerns HOP-92. In words: Induction of apoptosis in human HOP-92 cells assessed as fold change in ratio of Bax/Bcl-2 gene expression by RT-PCR analysis.
For assay [6], the system named is HOP-92. Description: Induction of apoptosis in human HOP-92 cells assessed as fold change in PARP1 gene expression by RT-PCR analysis.
The test system of assay [7] is HOP-92. In words: Induction of apoptosis in human HOP-92 cells assessed as total apoptotic rate by Annexin V/ PI staining based flow cytometry (reference value: 2.28 %).
Assay [8] relates to HOP-92. In words: Induction of apoptosis in human HOP-92 cells assessed as fold change in Bax gene expression by RT-PCR analysis.
Assay [9] relates to HOP-92. Description: Induction of cell cycle arrest in human HOP-92 cells assessed as accumulation of cells at S phase (reference value: 29.57 %).
For assay [10], the system named is HOP-92. Description: Induction of apoptosis in human HOP-92 cells assessed as fold change in p53 gene expression by RT-PCR analysis.
In assay [11] the test system is HOP-92. In words: Induction of apoptosis in human HOP-92 cells assessed as fold change in caspase-3 gene expression by RT-PCR analysis.
For assay [12], the system named is HOP-92. Description: Induction of apoptosis in human HOP-92 cells assessed as early apoptotic rate by Annexin V/ PI staining based flow cytometry (reference value: 0.42 %).
Assay [13] relates to HOP-92. In words: Induction of apoptosis in human HOP-92 cells assessed as necrosis rate by Annexin V/ PI staining based flow cytometry (reference value: 1.6 %).
Assay [14] relates to HOP-92. Description: Induction of apoptosis in human HOP-92 cells assessed as late apoptotic rate by Annexin V/ PI staining based flow cytometry (reference value: 0.26 %).
Assay [15] concerns HOP-92. Description: Inhibition of cell invasion in human HOP-92 cells incubated for 15 to 20 mins by crystal violet staining based trans-well assay relative to control. The following applies: time 15-20 min.
The subject of assay [16] is HOP-92. In words: Induction of cell cycle arrest in human HOP-92 cells assessed as accumulation of cells at G2/M phase (reference value: 15.6 %).
Assay [17] deals with HOP-92. In words: Induction of apoptosis in human HOP-92 cells assessed as fold change in TNFR1 gene expression by RT-PCR analysis.
Assay [18] has as its system HOP-92. Description: Induction of apoptosis in human HOP-92 cells assessed as fold change in caspase-8 gene expression by RT-PCR analysis.
In assay [19] the test system is HOP-92. In words: Inhibition of cell migration in human HOP-92 cells incubated for 15 to 20 mins by crystal violet staining based trans-well assay relative to control. The following applies: time 15-20 min.
Assay [20] deals with HOP-92. Description: Induction of cell cycle arrest in human HOP-92 cells assessed as accumulation of cells at G0/G1 phase (reference value: 54.83 %).
The test system of assay [21] is HOP-92. In words: Inhibition of cell migration in human HOP-92 cells assessed as fold decrease in cell count incubated for 15 to 20 mins by crystal violet staining based trans-well assay. Particulars: time 15-20 min.
Assay [22] deals with HOP-92. In words: Induction of apoptosis in human HOP-92 cells assessed as fold change in caspase-9 gene expression by RT-PCR analysis.

The structures appear in SMILES notation.

For `COc1cccc2c1C(=O)c1c(O)c3c(c(O)c1C2=O)C[C@@](O)(C(=O)CO)C[C@@H]3O[C@H]1C[C@H](N)[C@H](O)[C@H](C)O1` [DOXORUBICIN], the “inhibition (INH)” value is recorded as 44.9% in assay [1], 41.96% in assay [15] and 73.54% in [19]. Further, the “fold change (FC)” value in [2] stood at 0.31; in assay [5] it was 21.4; in assay [6], 0.23; in assay [8], 6.62; in assay [10] it was 6.97; in [11] it was 14.3. Besides, the “fold change (FC)” value in assay [17] amounted to 0.24; in assay [18], 4.36; in assay [21], 3.8; in assay [22], 12.4. Besides, the Activity is reported as 2.15% in assay [3]; 2.44% in assay [4]; 52.49% in assay [7]; 21.73% in assay [9]; 16.64% in assay [12]; 9.28% in [13]. Also, the Activity stood at 26.57% in [14], 29.74% in assay [16] and 48.53% in assay [20].
